In US20240139220A1, “TREATMENT OF HPV INFECTION” (priority 2022, published 2024):

How the values were obtained:
Type in all cases: physicochemical
[1] = Hygroscicity by Dynamic Vapor Sorption (DVS) at 25° C.; details: for Desorp. (%) Cycle 1 / Desorp. (%) Cycle 2 / Sorp. (%) Cycle 1 / Sorp. (%) Cycle 2 / Hygroscopicity / Water uptake: DVS 25° C.; for XRPD after DVS test: 25° C.; for Water uptake: up to 95% RH
Protocol: Hygroscopicity was investigated by DVS at 25° C., using the following method: […]

[2] = Bulk stability, accelerated storage for one week (HPLC, XRPD); details: for Stability after exposure to the three conditions: 25° C./92% RH open, 40° C./75% RH open, 60° C. tight container; for Stability after exposure to the three conditions / Degradation product increase: one week; for Bulk (XRPD) / Color / Purity, Bulk (HPLC): 1 week; for Initial HPLC purity: before storage
Protocol: Bulk stability: Accelerated stability experiments were conducted at 25° C./92% RH and 40° C./75% RH in an open container, 60° C. in a tight container for one week.
Samples were characterized by XRPD and HPLC and inspected for color change.
Accelerated stability experiments were conducted at 25° C./92% RH in an open container, at 40° C./75% RH in an open container, and at 60° C. in a tight container for one week.

[3] = Solubility in buffers, water and simulated vaginal fluid at 37° C.
Protocol: About 4 mg of Compound I Pattern 1 was added into 2 mL of buffer solution.
(§1) Solubility was tested in five media, pH 3.0 citrate buffer, pH 4.5 acetate buffer, pH 6.8 phosphate buffer, water, simulated vaginal fluid (pH 4.2) at 37° C. for 0.5 h and 2 h.
The salt amount used is equivalent to 10 mg anhydrous free base. […] The obtained clear solutions were analyzed by pH meter for pH, and solubility was determined by observation.
as §1

[4] = Polymorph screening by equilibration in solvents at 25° C. (XRPD)
[5] = BS1: solid state, 25° C./92% RH, open container
[6] = BS2: solid state, 40° C./75% RH, open container
[7] = BS3: solid state, 60° C., tight container
[8] = ES1: pH 3.0, 100 mM citrate buffer
[9] = ES2: pH 4.5, 50 mM acetate buffer
[10] = ES3: pH 6.8, 50 mM phosphate buffer
[11] = ES5: Simulated vaginal fluid (pH adjusted by 0.1N NaOH)

Structure (SMILES): CCOC(=O)C(C)NP(=O)(COCCn1cnc2c(OC)nc(N)nc21)OCc1ccccc1.O=C(O)C=CC(=O)O (stereo not shown) [Compound II Pattern 1]
- Desorp. (%) Cycle 1 ([1]; 0% RH): 0.03%
- Desorp. (%) Cycle 2 ([1]; 0% RH): 0.03%
- Sorp. (%) Cycle 1 ([1]; 0% RH): 0.03%
- Sorp. (%) Cycle 2 ([1]; 0% RH): 0.03%
- Desorp. (%) Cycle 1 ([1]; 10% RH): 0.05%
- Desorp. (%) Cycle 2 ([1]; 10% RH): 0.05%
- Sorp. (%) Cycle 1 ([1]; 10% RH): 0.04%
- Sorp. (%) Cycle 2 ([1]; 10% RH): 0.04%
- Desorp. (%) Cycle 1 ([1]; 20% RH): 0.08%
- Desorp. (%) Cycle 2 ([1]; 20% RH): 0.07%
- Sorp. (%) Cycle 1 ([1]; 20% RH): 0.06%
- Sorp. (%) Cycle 2 ([1]; 20% RH): 0.06%
- Desorp. (%) Cycle 1 ([1]; 30% RH): 0.10%
- Desorp. (%) Cycle 2 ([1]; 30% RH): 0.08%
- Sorp. (%) Cycle 1 ([1]; 30% RH): 0.08%
- Sorp. (%) Cycle 2 ([1]; 30% RH): 0.07%
- Desorp. (%) Cycle 1 ([1]; 40% RH): 0.17%
- Desorp. (%) Cycle 2 ([1]; 40% RH): 0.10%
- Sorp. (%) Cycle 1 ([1]; 40% RH): 0.10%
- Sorp. (%) Cycle 2 ([1]; 40% RH): 0.09%
- XRPD after DVS test ([1]; 40-0-95-0-40% RH): No form change
- Desorp. (%) Cycle 2 ([1]; 50% RH): 0.12%
- Sorp. (%) Cycle 1 ([1]; 50% RH): 0.12%
- Desorp. (%) Cycle 2 ([1]; 60% RH): 0.14%
- Sorp. (%) Cycle 1 ([1]; 60% RH): 0.13%
- Desorp. (%) Cycle 2 ([1]; 70% RH): 0.18%
- Sorp. (%) Cycle 1 ([1]; 70% RH): 0.16%
- Desorp. (%) Cycle 2 ([1]; 80% RH): 0.21%
- Sorp. (%) Cycle 1 ([1]; 80% RH): 0.19%
- Desorp. (%) Cycle 2 ([1]; 90% RH): 0.24%
- Sorp. (%) Cycle 1 ([1]; 90% RH): 0.23%
- Desorp. (%) Cycle 2 ([1]; 95% RH): 0.24%
- Sorp. (%) Cycle 1 ([1]; 95% RH): 0.24%
- Hygroscopicity [1]: slightly hygroscopic
- XRPD after DVS test ([1]; cycle 40-0-95-0-40% RH): No form change
- Water uptake [1]: about 0.2%
- Stability after exposure to the three conditions [2]: good physical and chemical stability
- Bulk (XRPD) [2, 5]: No form change
- Color [2, 5]: No change
- Purity, Bulk (HPLC) [2, 5]: 99.5%
- Bulk (XRPD) [2, 6]: No form change
- Color [2, 6]: No change
- Purity, Bulk (HPLC) [2, 6]: 99.4%
- Bulk (XRPD) [2, 7]: No form change
- Color [2, 7]: No change
- Purity, Bulk (HPLC) [2, 7]: 99.7%
- Initial HPLC purity [2]: 99.7%
- Solubility 0.5 hours [3, 8]: >2000 µg/mL
- Solubility 2 hours [3, 8]: > 2000 µg/mL
- pH of solution, 2 hours [3, 8]: 2.85
- Solubility 0.5 hours [3, 9]: >2000 µg/mL
- Solubility 2 hours [3, 9]: > 2000 µg/mL
- pH of solution, 2 hours [3, 9]: 4.2
- Solubility 0.5 hours [3, 10]: >2000 µg/mL
- Solubility 2 hours [3, 10]: > 2000 µg/mL
- pH of solution, 2 hours [3, 10]: 6.47
- Solubility 0.5 hours ([3]; ES4: Water): >2000 µg/mL
- Solubility 2 hours ([3]; ES4: Water): > 2000 µg/mL
- pH of solution, 2 hours ([3]; ES4: Water): 2.87
- Solubility 0.5 hours [3, 11]: >2000 µg/mL
- Solubility 2 hours [3, 11]: > 2000 µg/mL
- pH of solution, 2 hours [3, 11]: 5.79
- Crystal modification after 1 week equilibration (XRPD) ([4]; PS1: IPA): Compound II Pattern 1
- Crystal modification after 1 week equilibration (XRPD) ([4]; PS2: Heptanes): Compound II Pattern 1
- Crystal modification after 1 week equilibration (XRPD) ([4]; PS3: Water): Compound II Pattern 1
- Crystal modification after 1 week equilibration (XRPD) ([4]; PS4: ACN): Compound II Pattern 2
- Crystal modification after 1 week equilibration (XRPD) ([4]; PS5: MEK): Compound II Pattern 3
- Crystal modification after 1 week equilibration (XRPD) ([4]; PS6: Acetone): Compound II Pattern 1
- Crystal modification after 1 week equilibration (XRPD) ([4]; PS7: IPA/heptanes (3/10, v/v)): Compound II Pattern 1
- Crystal modification after 1 week equilibration (XRPD) ([4]; PS8: water/ACN (2.9/97.1, v/v)): Compound II Pattern 2
- Crystal modification after 1 week equilibration (XRPD) ([4]; PS9: IPA/MTBE (1/3, v/v)): Compound II Pattern 1
- Crystal modification after 1 week equilibration (XRPD) ([4]; PS10: EA/toluene (1/3, v/v)): Compound II Pattern 1

Structure (SMILES): CCOC(=O)C(C)NP(=O)(COCCn1cnc2c(OC)nc(N)nc21)OCc1ccccc1.O=C(O)C=CC(=O)O (stereo not shown) [Compound III Pattern 2]
- Desorp. (%) Cycle 1 ([1]; 0% RH): 0.00%
- Desorp. (%) Cycle 2 ([1]; 0% RH): 0.00%
- Sorp. (%) Cycle 1 ([1]; 0% RH): 0.00%
- Sorp. (%) Cycle 2 ([1]; 0% RH): 0.00%
- Desorp. (%) Cycle 1 ([1]; 10% RH): 0.07%
- Desorp. (%) Cycle 2 ([1]; 10% RH): 0.07%
- Sorp. (%) Cycle 1 ([1]; 10% RH): 0.07%
- Sorp. (%) Cycle 2 ([1]; 10% RH): 0.07%
- Desorp. (%) Cycle 1 ([1]; 20% RH): 0.15%
- Desorp. (%) Cycle 2 ([1]; 20% RH): 0.15%
- Sorp. (%) Cycle 1 ([1]; 20% RH): 0.14%
- Sorp. (%) Cycle 2 ([1]; 20% RH): 0.14%
- Desorp. (%) Cycle 1 ([1]; 30% RH): 0.23%
- Desorp. (%) Cycle 2 ([1]; 30% RH): 0.23%
- Sorp. (%) Cycle 1 ([1]; 30% RH): 0.22%
- Sorp. (%) Cycle 2 ([1]; 30% RH): 0.22%
- Desorp. (%) Cycle 1 ([1]; 40% RH): 0.30%
- Desorp. (%) Cycle 2 ([1]; 40% RH): 0.32%
- Sorp. (%) Cycle 1 ([1]; 40% RH): 0.29%
- Sorp. (%) Cycle 2 ([1]; 40% RH): 0.30%
- XRPD after DVS test ([1]; 40-0-95-0-40% RH): No form change
- Desorp. (%) Cycle 2 ([1]; 50% RH): 0.41%
- Sorp. (%) Cycle 1 ([1]; 50% RH): 0.39%
- Desorp. (%) Cycle 2 ([1]; 60% RH): 0.52%
- Sorp. (%) Cycle 1 ([1]; 60% RH): 0.47%
- Desorp. (%) Cycle 2 ([1]; 70% RH): 0.67%
- Sorp. (%) Cycle 1 ([1]; 70% RH): 0.59%
- Desorp. (%) Cycle 2 ([1]; 80% RH): 0.81%
- Sorp. (%) Cycle 1 ([1]; 80% RH): 0.71%
- Desorp. (%) Cycle 2 ([1]; 90% RH): 0.97%
- Sorp. (%) Cycle 1 ([1]; 90% RH): 0.92%
- Desorp. (%) Cycle 2 ([1]; 95% RH): 1.01%
- Sorp. (%) Cycle 1 ([1]; 95% RH): 1.01%
- Hygroscopicity [1]: slightly hygroscopic
- XRPD after DVS test ([1]; cycle 40-0-95-0-40% RH): No form change
- Water uptake [1]: about 1.0%
- Stability after exposure to the three conditions [2]: good physical stability
- Degradation product increase ([2]; 40° C./75% RH in an open container): 1.6%
- Degradation product increase ([2]; 60° C. in a tight container): 1.5%
- Bulk (XRPD) [2, 5]: No form change
- Color [2, 5]: No change
- Purity, Bulk (HPLC) [2, 5]: 98.7%
- Bulk (XRPD) [2, 6]: No form change (One
- Color [2, 6]: No change
- Purity, Bulk (HPLC) [2, 6]: 97.2%
- Bulk (XRPD) [2, 7]: No form change (One
- Color [2, 7]: No change
- Purity, Bulk (HPLC) [2, 7]: 97.3%
- Initial HPLC purity [2]: 98.8%
- Solubility 0.5 hours [3, 8]: >2000 µg/mL
- Solubility 2 hours [3, 8]: > 2000 µg/mL
- pH of solution, 2 hours [3, 8]: 2.83
- Solubility 0.5 hours [3, 9]: >2000 µg/mL
- Solubility 2 hours [3, 9]: > 2000 µg/mL
- pH of solution, 2 hours [3, 9]: 4.12
- Solubility 0.5 hours [3, 10]: >2000 µg/mL
- Solubility 2 hours [3, 10]: > 2000 µg/mL
- pH of solution, 2 hours [3, 10]: 6.44
- Solubility 0.5 hours ([3]; ES4: Water): >2000 µg/mL
- Solubility 2 hours ([3]; ES4: Water): > 2000 µg/mL
- pH of solution, 2 hours ([3]; ES4: Water): 2.78
- Solubility 0.5 hours [3, 11]: >2000 µg/mL
- Solubility 2 hours [3, 11]: > 2000 µg/mL
- pH of solution, 2 hours [3, 11]: 5.37
- Crystal modification after 1 week equilibration (XRPD) ([4]; PS1: IPA): Compound V Pattern 2
- Crystal modification after 1 week equilibration (XRPD) ([4]; PS2: Heptanes): Compound III Pattern 2
- Crystal modification after 1 week equilibration (XRPD) ([4]; PS3: Water): Compound III Pattern 3
- Crystal modification after 1 week equilibration (XRPD) ([4]; PS4: ACN): Compound III Pattern 4
- Crystal modification after 1 week equilibration (XRPD) ([4]; PS5: MEK): Compound III Pattern 5
- Crystal modification after 1 week equilibration (XRPD) ([4]; PS7: IPA/heptanes (3/10, v/v)): Compound III Pattern 2
- Crystal modification after 1 week equilibration (XRPD) ([4]; PS8: water/ACN (2.9/97.1, v/v)): Compound III Pattern 4
- Crystal modification after 1 week equilibration (XRPD) ([4]; PS9: IPA/MTBE (1/3, v/v)): Compound III Pattern 6
- Crystal modification after 1 week equilibration (XRPD) ([4]; PS10: EA/toluene (1/3, v/v)): Compound III Pattern 2
